Literature values in US7052486B2, “Method and system for treating depressive and anxiety disorders” (Medtronic, Inc., priority 2003, dated 2006).

What was measured:
refractory depression = details: single intrathecal bolus
depression = details: administered parenterally (IV or SQ)
[1] = test system: refractory obsessive-compulsive disorder (OCD); details: chronic parenteral use

Structure (SMILES) | patients successfully treated for refractory depression (refractory depression) | time to rapid and dramatic improvement in the symptoms of severe depression (refractory depression) | response in depression (depression) | OCD behaviors [1] | symptoms of depression as measured by the Hamilton scale [1]
NC(=O)[C@@H]1CCCN1C(=O)[C@H](Cc1cnc[nH]1)NC(=O)[C@@H]1CCC(=O)N1 [TRH, Thyrotropin-releasing hormone] | 7 out of 10 | < 24 h | unpredictable responses |  | 
CNS(=O)(=O)Cc1ccc2[nH]cc(CCN(C)C)c2c1 [sumatriptan] |  |  |  | only modest reductions | significant improvements
